Reference: PubChem BioAssay AID266 (DTP/NCI, 2004)
Several values for one entry are separate records, joined by “and”; a condition that tells them apart may be missing. Identical values can stand only once. Inconclusive results are not listed.

System: Nude mice, LX-1 lung xenograft intrarenal, tumor weight T/C
Test: NCI In Vivo Anticancer Drug Screen. Data for tumor model Human Lung LX-1 Xenograft (intrarenal inoculation) in NU/NU BALB/C (nude) mice
Conditions: endpoint: mean tumor weight change, higher = larger tumour
Protocol: The antitumor activity of compounds was measured in mice bearing transplantable tumors. Survival or tumor size were measured and the results are expressed as the measurement made in the treated group (T) divided by the measurement made in the vehicle treated control group (C). The tumor model used in this assay is Human Lung LX-1 Xenograft (intrarenal inoculation) in NU/NU BALB/C (nude) mice

[1] = dose: 50.0 mg/kg/injection, schedule: Q01DX010 (sc), vehicle: saline with Tween-80
[2] = dose: 100.0 mg/kg/injection, schedule: Q01DX010 (sc), vehicle: saline with Tween-80
[3] = dose: 200.0 mg/kg/injection, schedule: Q01DX010 (sc), vehicle: saline with Tween-80
[4] = dose: 400.0 mg/kg/injection, schedule: Q01DX010 (sc), vehicle: saline with Tween-80
[5] = dose: 300.0 mg/kg/injection, schedule: Q04DX003 (sc), vehicle: Klucel (hydroxypropylcellulose) (HPC)
[6] = dose: 18.75 mg/kg/injection, schedule: Q04DX003 (sc), vehicle: Klucel (hydroxypropylcellulose) (HPC)
[7] = dose: 75.0 mg/kg/injection, schedule: Q04DX003 (sc), vehicle: Klucel (hydroxypropylcellulose) (HPC)

Q: For `COc1ccc(OC)c(/C=C/c2ccnc3ccccc23)c1`, which T/C [1] is on record?
A: 65 % of control

Q: And the T/C [2]?
A: 152 % of control

Q: What about the T/C [3] of the same molecule?
A: 251 % of control

Q: What about the T/C [4] of the same molecule?
A: 121 % of control

Q: `C[C@@]1(CO)[C@H](O)CC[C@@]2(C)[C@H]1CC[C@H]1C[C@@H]3C[C@@]12CC[C@@]3(O)COC(=O)CN` was tested. Which T/C (dose: 100.0 mg/kg/injection, schedule: Q01DX010 (sc), vehicle: saline + alcohol) did it give?
A: 109 % of control

Q: And the T/C (dose: 200.0 mg/kg/injection, schedule: Q01DX010 (sc), vehicle: saline + alcohol)?
A: 54 % of control

Q: For `O=C(CCCN1CCC(C(O)c2ccc(F)cc2)CC1)c1ccc(F)cc1` (stereo unspecified), which T/C (dose: 12.5 mg/kg/injection, schedule: Q04DX003 (ip), vehicle: saline with Tween-80) is on record?
A: 64 % of control

Q: What about the T/C (dose: 25.0 mg/kg/injection, schedule: Q04DX003 (ip), vehicle: saline with Tween-80) of the same molecule?
A: 68 % of control

Q: What about the T/C (dose: 50.0 mg/kg/injection, schedule: Q04DX003 (ip), vehicle: saline with Tween-80) of the same molecule?
A: 69 % of control

Q: `OC1OC2COC(c3ccccc3)OC2C(O)C1O` (stereo unspecified) was tested. Which T/C (dose: 300.0 mg/kg/injection, schedule: Q04DX003 (sc), vehicle: water) did it give?
A: 101 % of control

Q: And the T/C (dose: 600.0 mg/kg/injection, schedule: Q04DX003 (sc), vehicle: water)?
A: 117 % of control

Q: And the T/C (dose: 1200.0 mg/kg/injection, schedule: Q04DX003 (sc), vehicle: water)?
A: 105 % of control

Q: And the T/C (dose: 2400.0 mg/kg/injection, schedule: Q04DX003 (sc), vehicle: water)?
A: 90 % of control

Q: `CC1CCC(n2cnc3c(Cl)ncnc32)O1` (stereo unspecified) was tested. Which T/C [5] did it give?
A: 81 % of control

Q: With `CNC(=O)ON(C(C)=O)C(=O)NC` as the molecule, how does the T/C (dose: 25.0 mg/kg/injection, schedule: Q01DX010 (sc), vehicle: saline) read?
A: 49 % of control

Q: What about the T/C (dose: 50.0 mg/kg/injection, schedule: Q01DX010 (sc), vehicle: saline) of the same molecule?
A: 85 % of control

Q: What about the T/C (dose: 100.0 mg/kg/injection, schedule: Q01DX010 (sc), vehicle: saline) of the same molecule?
A: 41 % of control

Q: With `CN(C)N=Nc1ccc(C(N)=O)cc1` as the molecule, how does the T/C (dose: 200.0 mg/kg/injection, schedule: Q04DX003 (ip), vehicle: saline with Tween-80) read?
A: -20 % of control and -13 % of control

Q: For `CCOC1=Cc2c(oc3c(C(C)(C)C)cc(OCC)cc23)OC(C(C)(C)C)=C1`, which T/C (dose: 150.0 mg/kg/injection, schedule: Q04DX003 (sc), vehicle: saline with Tween-80) is on record?
A: 92 % of control

Q: What about the T/C (dose: 300.0 mg/kg/injection, schedule: Q04DX003 (sc), vehicle: saline with Tween-80) of the same molecule?
A: 101 % of control

Q: What about the T/C (dose: 600.0 mg/kg/injection, schedule: Q04DX003 (sc), vehicle: saline with Tween-80) of the same molecule?
A: 102 % of control

Q: Which results are given for `CCOC(=O)C(N)CSC(=O)NC` (stereo unspecified)?
A: T/C (dose: 150.0 mg/kg/injection, schedule: Q04DX003 (ip), vehicle: saline): 82 % of control; T/C (dose: 300.0 mg/kg/injection, schedule: Q04DX003 (ip), vehicle: saline): 52 % of control; T/C (dose: 600.0 mg/kg/injection, schedule: Q04DX003 (ip), vehicle: saline): 102 % of control

Q: Which results are given for `N=[N+]=CC(=O)CCC(NC(=O)C(CCC(=O)C=[N+]=N)NC(=O)CCC(N)C(=O)O)C(=O)O` (stereo unspecified)?
A: T/C (dose: 0.2 mg/kg/injection, schedule: Q02DX005 (sc), vehicle: water): 114 % of control; T/C (dose: 0.4 mg/kg/injection, schedule: Q02DX005 (sc), vehicle: water): 73 % of control; T/C (dose: 0.8 mg/kg/injection, schedule: Q02DX005 (sc), vehicle: water): 26 % of control; T/C (dose: 1.6 mg/kg/injection, schedule: Q02DX005 (sc), vehicle: water): 74 % of control; T/C (dose: 3.2 mg/kg/injection, schedule: Q02DX005 (sc), vehicle: water): 65 % of control; T/C (dose: 6.4 mg/kg/injection, schedule: Q02DX005 (sc), vehicle: water): 41 % of control

Q: `COC1=C(OC)C(=O)C(C/C=C(\C)CC/C=C(\C)CC/C=C(\C)CC/C=C(\C)CC/C=C(\C)CC/C=C(\C)CC/C=C(\C)CC/C=C(\C)CC/C=C(\C)CCC=C(C)C)=C(C)C1=O` was tested. Which T/C [1] did it give?
A: 91 % of control

Q: What about the T/C [2] of the same molecule?
A: 90 % of control

Q: What about the T/C [3] of the same molecule?
A: 102 % of control

Q: And the T/C [4]?
A: 104 % of control

Q: With `O=NN(CCCl)C(=O)NCCO` as the molecule, how does the T/C (dose: 3.13 mg/kg/injection, schedule: Q04DX003 (sc), vehicle: water) read?
A: 113 % of control

Q: What about the T/C (dose: 6.25 mg/kg/injection, schedule: Q04DX003 (sc), vehicle: water) of the same molecule?
A: 26 % of control

Q: And the T/C (dose: 12.5 mg/kg/injection, schedule: Q04DX003 (sc), vehicle: water)?
A: -25 % of control

Q: Which T/C (dose: 12.0 mg/kg/injection, schedule: Q04DX003 (sc), vehicle: saline + alcohol) does the source give for `CCCNC1=C(C)C(=O)C2=C(C1=O)[C@H](COC(N)=O)[C@]1(OC)[C@@H]3N[C@@H]3CN21` here?
A: 52 % of control

Q: What about the T/C (dose: 24.0 mg/kg/injection, schedule: Q04DX003 (sc), vehicle: saline + alcohol) of the same molecule?
A: 8 % of control

Q: Which T/C (dose: 150.0 mg/kg/injection, schedule: Q04DX003 (ip), vehicle: DMSO) does the source give for `Nc1ccc(S(=O)(=O)Nc2cnc3c(Cl)cccc3n2)cc1` here?
A: 82 % of control

Q: And the T/C (dose: 300.0 mg/kg/injection, schedule: Q04DX003 (ip), vehicle: DMSO)?
A: 89 % of control

Q: What about the T/C (dose: 600.0 mg/kg/injection, schedule: Q04DX003 (ip), vehicle: DMSO) of the same molecule?
A: 45 % of control

Q: For `O=Cc1ccc(C=O)c(Cl)c1`, which T/C [5] is on record?
A: 81 % of control

Q: And the T/C (dose: 600.0 mg/kg/injection, schedule: Q04DX003 (sc), vehicle: Klucel (hydroxypropylcellulose) (HPC))?
A: 88 % of control

Q: And the T/C (dose: 1200.0 mg/kg/injection, schedule: Q04DX003 (sc), vehicle: Klucel (hydroxypropylcellulose) (HPC))?
A: 79 % of control

Q: And the T/C (dose: 2400.0 mg/kg/injection, schedule: Q04DX003 (sc), vehicle: Klucel (hydroxypropylcellulose) (HPC))?
A: 152 % of control

Q: Which results are given for `COc1c(C=O)c2c(c(OC)c1OC)-c1ccc(OC)c(=O)cc1[C@@H](NC(C)=O)CC2`?
A: T/C [6]: 83 % of control; T/C (dose: 37.5 mg/kg/injection, schedule: Q04DX003 (sc), vehicle: Klucel (hydroxypropylcellulose) (HPC)): 59 % of control; T/C [7]: 32 % of control

Q: Which results are given for `O=C(Nc1cc(Cl)ccc1C(=O)O)c1cccc(C[n+]2ccccc2)c1`?
A: T/C (dose: 150.0 mg/kg/injection, schedule: Q04DX003 (ip), vehicle: saline with Tween-80): 67 % of control; T/C (dose: 300.0 mg/kg/injection, schedule: Q04DX003 (ip), vehicle: saline with Tween-80): 100 % of control

Q: With `Cn1c(=O)[nH]c2nncnc2c1=O` as the molecule, how does the T/C (dose: 62.5 mg/kg/injection, schedule: Q04DX003 (sc), vehicle: water) read?
A: 110 % of control

Q: `NC(CCl)=NCC12CC3CC(CC(C3)C1)C2` was tested. Which T/C [6] did it give?
A: 157 % of control

Q: And the T/C [7]?
A: 110 % of control

Q: Which results are given for `CCCCCCCCCCC(OC(C)=O)C1CCC(C2CCC(C(O)CCCCCCCCCCCCC3C=C(C)OC3=O)O2)O1` (stereo unspecified)?
A: T/C (dose: 5.0 mg/kg/injection, schedule: Q04DX003 (sc), vehicle: water): 93 % of control; T/C (dose: 10.0 mg/kg/injection, schedule: Q04DX003 (sc), vehicle: water): 114 % of control; T/C (dose: 20.0 mg/kg/injection, schedule: Q04DX003 (sc), vehicle: water): 108 % of control; T/C (dose: 40.0 mg/kg/injection, schedule: Q04DX003 (sc), vehicle: water): 110 % of control

Q: Which T/C (dose: 50.0 mg/kg/injection, schedule: Q01DX010 (ip), vehicle: saline with Tween-80) does the source give for `Cc1ccoc1` here?
A: 109 % of control

Q: And the T/C (dose: 100.0 mg/kg/injection, schedule: Q01DX010 (ip), vehicle: saline with Tween-80)?
A: 93 % of control

Q: And the T/C (dose: 200.0 mg/kg/injection, schedule: Q01DX010 (ip), vehicle: saline with Tween-80)?
A: 163 % of control

Q: What about the T/C (dose: 400.0 mg/kg/injection, schedule: Q01DX010 (ip), vehicle: saline with Tween-80) of the same molecule?
A: 80 % of control

Q: `CCCCCCCCNc1cc2c3c(c1)CCCN3CCC2` was tested. Which T/C (dose: 6.0 mg/kg/injection, schedule: Q04DX003 (sc), vehicle: Klucel (hydroxypropylcellulose) (HPC)) did it give?
A: 155 % of control

Q: And the T/C (dose: 12.0 mg/kg/injection, schedule: Q04DX003 (sc), vehicle: Klucel (hydroxypropylcellulose) (HPC))?
A: 118 % of control

Q: What about the T/C (dose: 24.0 mg/kg/injection, schedule: Q04DX003 (sc), vehicle: Klucel (hydroxypropylcellulose) (HPC)) of the same molecule?
A: 106 % of control

Q: With `NNC(=S)N/N=C/c1ccccn1` as the molecule, how does the T/C (dose: 15.0 mg/kg/injection, schedule: Q04DX003 (sc), vehicle: saline with Tween-80) read?
A: 78 % of control

Q: And the T/C (dose: 30.0 mg/kg/injection, schedule: Q04DX003 (sc), vehicle: saline with Tween-80)?
A: 95 % of control

Q: And the T/C (dose: 60.0 mg/kg/injection, schedule: Q04DX003 (sc), vehicle: saline with Tween-80)?
A: 94 % of control

Q: What does the source list for `CC(=O)Oc1c[nH]c(=O)[nH]c1=O`?
A: T/C (dose: 200.0 mg/kg/injection, schedule: Q04DX003 (sc), vehicle: distilled water + Tween-80): 98 % of control; T/C (dose: 400.0 mg/kg/injection, schedule: Q04DX003 (sc), vehicle: distilled water + Tween-80): 76 % of control; T/C (dose: 800.0 mg/kg/injection, schedule: Q04DX003 (sc), vehicle: distilled water + Tween-80): 104 % of control
